Experimental data published in PMC7504435, “Combined Protein- and Ligand-Observed NMR Workflow to Screen Fragment Cocktails against Multiple Proteins: A Case Study Using Bromodomains” (Molecules, 2020).

Assays:
Type in all cases: binding
BPTF bromodomain [1] = molecular target: T1, BPTF bromodomain (Homo sapiens, UniProt Q12830); test: Competition 1H CPMG NMR with BPTF; parameters: deconvolution of the hit mixtures using the non-fluorine-labeled bromodomains; made in house; host or cells: E. coli BL21(DE3)
Description: The competition ^1H CPMG NMR and PrOF NMR assays were employed to further probe the binding mode of 9 to PfGCN5.
(§1) ^1H CPMG NMR. ^1H CPMG NMR screen data were acquired on Bruker Avance III HD 500 with the 5 mm Prodigy TCI cryoprobe inverse cryoprobe (^1H 2500:1 S/N). Competition ^1H CPMG NMR data were acquired on Bruker 700 MHz Avance with a CryoProbe 5 mm TXI (^1H S:N with H2O suppression (2mM sucrose) - 900:1) and excitation sculpting water suppression. Proteins were present at 10 µM in 50 mM phosphate, 100 mM NaCl, pH 7.4 in 100% D2O. In separate NMR tubes, a ^1H CPMG NMR pulse was applied to a 1) mixture of ligands (individual ligands present at 100 µM for the screen and 50 µM for competition experiments) and 2) ligands + protein. […] For the competition experiments, τ was increased to 4.0 ms.

BPTF bromodomain [2] = molecular target: T1, BPTF bromodomain; test: 1H CPMG NMR deconvolution of hit mixtures, BPTF; parameters: deconvolution of the hit mixtures using the non-fluorine-labeled bromodomains; made in house; host or cells: E. coli BL21(DE3); conditions: 10 µM protein, 100 µM ligand
Description: (§2) The second step is a ^1H CPMG NMR deconvolution of the hit mixtures using the non-fluorine-labeled bromodomains. ^1H CPMG NMR employs a T2 filter to take advantage of the difference in transverse relaxation time between protein and small molecules to filter out the bound-state ligand(s). Unlike the PrOF NMR assay, a single protein is assayed in each experiment. A binding event is characterized by a decrease in ligand resonance intensity from the ligand alone spectrum to the ligand + protein spectrum. A hit is defined as a decrease in resonance intensity ≥ 20%. The ^1H CPMG NMR assay can be tuned by changing the protein or ligand concentration, filter length (Figure 1), or hit criteria depending on how stringent the desired hit rate is. The number of ^1H CPMG NMR deconvolution experiments is directly informed from the first step. If a mixture from the first step was only a hit for one protein, a single ^1H CPMG NMR deconvolution experiment is needed. If a mixture from the first step was a hit for both proteins, two separate ^1H CPMG NMR deconvolutions experiments are needed to determine the fragments that bind to each protein.
as §1

PfGCN5 bromodomain [3] = molecular target: T2, PfGCN5 bromodomain (Plasmodium falciparum, UniProt Q8IB67); test: Competition 1H CPMG NMR with PfGCN5
From the text: The competition ^1H CPMG NMR and PrOF NMR assays were employed to further probe the binding mode of 9 to PfGCN5. […] At high concentrations, at or above the protein concentration, the competition maxed out at ~ 50% (Figure 2, Figure S10, Table S5). Conversely, TP-238 was able to compete 9 off from BPTF at low concentrations.
^1H CPMG NMR. ^1H CPMG NMR screen data were acquired on Bruker Avance III HD 500 with the 5 mm Prodigy TCI cryoprobe inverse cryoprobe (^1H 2500:1 S/N). Competition ^1H CPMG NMR data were acquired on Bruker 700 MHz Avance with a CryoProbe 5 mm TXI (^1H S:N with H2O suppression (2mM sucrose) - 900:1) and excitation sculpting water suppression. Proteins were present at 10 µM in 50 mM phosphate, 100 mM NaCl, pH 7.4 in 100% D2O. In separate NMR tubes, a ^1H CPMG NMR pulse was applied to a 1) mixture of ligands (individual ligands present at 100 µM for the screen and 50 µM for competition experiments) and 2) ligands + protein. For competition experiments, the ligands were used individually, and the competitor ligands were spiked into tube 2. ^1H CPMG NMR parameters for the screen: NS = 128, acquisition time = 2 s, τ = 2.5 ms, and L = 120. For the competition experiments, τ was increased to 4.0 ms.

PfGCN5 bromodomain [4] = molecular target: T2, PfGCN5 bromodomain; test: 1H CPMG NMR deconvolution of hit mixtures, PfGCN5; conditions: 10 µM protein, 100 µM ligand
Description: as §2, §1

BPTF bromodomain [5] = molecular target: T1, BPTF bromodomain; test: PrOF NMR (dual-protein screen of mixtures, titrations) with 5FW-BPTF; parameters: against the bromodomains of BPTF and Plasmodium falciparum GCN5 (PfGCN5); his6; made in house; conditions: hit mixture containing the fragment, 400 µM each fragment
Description: The screening workflow consists of two dependent steps: 1) a PrOF NMR screen of the 5FW-labeled proteins and a cocktail of 4–5 fragments in a single NMR tube; 2) a ^1H CPMG NMR binding assay to deconvolute the hit mixtures for each protein (Figure 1). In the first step, a dual-protein PrOF NMR spectrum was obtained in which 5FW-PfGCN5, 5FW-BPTF (~ 50 µM each) and mixtures of fragments (400 µM individual fragment) were present in the same NMR tube. […] Chemical shift perturbations indicating a ligand binding event were based on a prior cutoff of Δδ ≥ 0.030 ppm as the definition for a hit mixture. This cutoff was based on a statistical analysis of chemical shift perturbations from a prior BRD4 D1 fragment screen and are described further in the experimental section and in Table S2.
PrOF NMR. PrOF NMR spectra were obtained on a Bruker Avance III HD 500 with the 5 mm Prodigy TCI inverse cryoprobe (^19F S:N 2000:1). […] The DMSO concentration for all experiments was kept constant at 1%. […] For the PrOF NMR screen, 5FW-BPTF and 5FW-PfGCN5 (35–40 µM in 50 mM phosphate, 100 mM NaCl, pH 7.4) were tested with mixtures of 4–5 fragments, where each individual fragment was 400 µM. […] A 10 Hz line broadening was applied. Titrations were fit to Equation (2), where p is the protein concentration and L is the ligand concentration. (2) Δδ=Δδmax × (Kd+P+L ) − (((Kd + P + L )^2) − 4PL)/2P
A PrOF NMR binding event is characterized as a change in chemical shift (Δδ) from the protein-only spectrum to the protein + fragment mixture spectrum. We used a prior cutoff of Δδ ≥ 0.030 ppm as the definition of a hit mixture, based on a statistical analysis of chemical shift perturbations from a prior BRD4 D1 fragment screen.

[6] = for 9 from competition experiments (footnote a)

T2 sequence (Q8IB67 entry or part of it): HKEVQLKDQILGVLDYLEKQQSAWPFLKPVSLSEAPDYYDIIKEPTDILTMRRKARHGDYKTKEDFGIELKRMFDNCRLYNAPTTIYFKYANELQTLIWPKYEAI

With Nc1ccc2c(c1)N(C(=O)C1CC1)CCC2 [Fragment 9] the “% drop BPTF” value (BPTF bromodomain [1]; resonance of 9 at 2.6884 ppm) was 46%, the “% drop BPTF” value (BPTF bromodomain [1]; resonance of 9 at 6.98 ppm) was 68% and the “BPTF CPMG % decrease” value (BPTF bromodomain [2]) was 100%. The “1H CPMG NMR % Drop in Resonance Intensity BPTF” value (BPTF bromodomain [2]; [6]) was “++++ ^a (++++ = 80–99.9%)”, the “% drop PfGCN5” value (PfGCN5 bromodomain [3]; resonance of 9 at 2.6884 ppm, GSK series) was 72% and the “% drop PfGCN5” value (PfGCN5 bromodomain [3]; resonance of 9 at 2.6884 ppm, L-Moses series) was 83%. The “% drop PfGCN5” value (PfGCN5 bromodomain [3]; resonance of 9 at 6.98 ppm, GSK series) was 71%, the “% drop PfGCN5” value (PfGCN5 bromodomain [3]; resonance of 9 at 6.98 ppm, L-Moses series) was 75% and the “PfGCN5 CPMG % decrease” value (PfGCN5 bromodomain [4]) was 100%. The “1H CPMG NMR % Drop in Resonance Intensity PfGCN5” value (PfGCN5 bromodomain [4]; [6]) was “++++ ^a (++++ = 80–99.9%)” and the “Initial Mixture BPTF PrOF NMR Δδ” value (BPTF bromodomain [5]) was “++++ (++++ = Δδ > 0.2)”.
